In patent US12173349B2, “Lung protease nanosensors and uses thereof” (Massachusetts Institute of Technology, priority 2018, dated 2024):
Where no end group is shown, it is not given here. [ ]: non-standard residue; d: D form. FAM = carboxyfluorescein fluorophore label

How the values were obtained:
[1] = system: PA01 supernatant; test: cleavage of FRET-paired substrates by bacterial supernatant; assay type: biochemical, Pseudomonas aeruginosa
Description: (§1) The specificity of LAS and ELA for P. aeruginosa cleavage was tested by collecting supernatants from PA01 or Staphylococcus aureus cultures and incubating them with FRET-paired substrates LAS-Q and ELA-Q in 384 well plates. […] To investigate whether the LAS and ELA substrates are also susceptible to cleavage by host proteases, each was incubated with recombinant mouse proteases.
(§2) Supernatant from PA01 and S. aureus were collected and added to substrates in 384 well plates and dequenching of FAM was monitored at 37° C. (Tecan). Fluorescence change at 30 minutes was reported. For recombinant protease assays, enzyme was added to the substrates in enzyme-specific buffer (MMP7 & 9 buffer: 50 mM Tris, 150 mM NaCl, 5 mM CaCl2), […], pH 7.5; Thrombin: PBS; NE: 100 mM HEPES, 500 mM NaCl, 0.05% Tween 20) in a 384 well plate for time-lapse fluorimetry to measure dequenching at 37° C. (Tecan).

[2] = target: thrombin (Mus musculus, UniProt P19221); test: recombinant host protease cleavage assay; assay type: biochemical
Description: as §1, §2

[3] = target: T1, neutrophil elastase (Mus musculus, UniProt Q3UP87); test: recombinant host protease cleavage assay; assay type: biochemical
T1 sequence (Q3UP87 27-265): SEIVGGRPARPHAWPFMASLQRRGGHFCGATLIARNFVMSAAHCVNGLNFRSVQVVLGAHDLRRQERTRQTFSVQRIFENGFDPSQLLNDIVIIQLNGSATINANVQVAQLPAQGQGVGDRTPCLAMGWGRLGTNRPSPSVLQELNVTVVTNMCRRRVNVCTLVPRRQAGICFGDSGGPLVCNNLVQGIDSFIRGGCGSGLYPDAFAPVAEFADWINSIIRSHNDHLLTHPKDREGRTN
Description: as §1, §2

[4] = target: MMP13 (Mus musculus, UniProt P33435); test: recombinant host protease cleavage assay; assay type: biochemical
Description: as §1, §2

[5] = target: T2, MMP7 (Mus musculus, UniProt Q10738); test: recombinant host protease cleavage assay; assay type: biochemical
T2 sequence (Q10738 95-264): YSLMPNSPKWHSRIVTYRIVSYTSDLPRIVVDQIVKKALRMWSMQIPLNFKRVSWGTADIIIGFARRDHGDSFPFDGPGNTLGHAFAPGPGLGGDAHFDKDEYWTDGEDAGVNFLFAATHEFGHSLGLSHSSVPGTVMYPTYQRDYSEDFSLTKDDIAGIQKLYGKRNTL
Description: as §1, §2

[6] = system: P. aeruginosa clinical isolate strains; test: cleavage of FRET-paired substrates by clinical isolate supernatants; assay type: biochemical, Pseudomonas aeruginosa
Description: P. aeruginosa strains isolated from de-identified clinical samples were generously provided by Dr. Deborah Hung, MD, PhD (Massachusetts General Hospital). Cultures of each were grown in LB broth overnight, then were subcultured in fresh LB and each strain grown to OD-matched mid log phase (OD600˜0.5). Supernatants were collected by centrifugation and substrate cleavage was monitored as described above.

[7] = system: Staphylococcus aureus supernatant; test: cleavage of FRET-paired substrates by bacterial supernatant; assay type: biochemical; details: S. aureus culture supernatant, fluorescence change at 30 minutes
Description: as §1, §2

[8] = system: Kras and p53 mutant lung adenocarcinoma (KP mice); test: urinary ABN readout and random forest classification in KP lung adenocarcinoma model; assay type: in vivo; details: KP mice
Description: To characterize ABN performance in vivo, 14 protease-sensitive ABNs were administered to KP mice and healthy, age and sex-matched controls at 5, 7.5 and 10.5 weeks after tumor initiation. Mouse bladders were voided one hour after intrapulmonary delivery and all fresh urine produced during the subsequent hour (from 60-120 minutes after administration) was pooled and collected. LC-MS/MS was performed and peak area ratios (defined as peak area of urinary reporter divided by peak area of spiked-in internal standard) of protease-sensitive reporters were mean-normalized within each sample to reduce mouse-to-mouse variation.
A random forest classifier was then sought to be built to enable prospective diagnosis of lung cancer in KP mice. Random forest is a high-performance classifier, applicable to a wide variety of classification tasks, that generates a collection of decision trees (a “forest”) that are sampled to produce classification results (Breiman, Machine Learning 45, 5-32, 2001). A random forest classifier was trained using 50% of control mice at 5 weeks, 7.5 weeks and 10.5 weeks, as well as 50% of KP mice at 7.5 weeks (FIG. 6A). The classifier assigned a probability that each mouse belonged to either the KP cohort or the healthy control cohort (FIG. 6B, “Training” panel), achieving perfect separation of control and KP mice. The classifier was then sought to be tested on an independent validation cohort consisting of classifier-naive KP mice at 5 weeks, 7.5 weeks and 10.5 weeks post-induction, as well as the remaining control mice from each time point.
Male B6/SV129 Kras^LSL-G12D/+; Trp53^fl/fl (KP) mice between 18 and 30 weeks old were used for lung adenocarcinoma experiments. Tumors were initiated, as described previously (DuPage et al., Nat Protoc 4, 1064-1072 (2009)), by the intratracheal administration of 50 μL of adenovirus-SPC-Cre (2.5×10^8 PFU in Opti-MEM with 10 mM CaCl2)) under isoflurane anesthesia. […] Tumor growth was monitored by micro computed tomography (microCT) imaging (General Electric) and was scored by a blinded radiation oncologist using MicroView (Parallax Innovations) (Table 4). Tumor volumes were calculated by using the ROI sphere/elliptical tool.
ABN constructs (GluFib-Substrate-PEG-840 kDa) for urinary experiments were synthesized by CPC Scientific (Sunnyvale, CA). ABNs were dosed (50 μL total volume, 20 μM concentration per ABN) by intratracheal intubation, as described above. Bladders were voided 60 minutes after ABN administration and all urine produced 60-120 min after ABN administration was collected using custom tubes in which the animals rest upon 96-well plates that capture urine. Urine was pooled and frozen at −80° C. until analysis by LC-MS/MS.
Liquid chromatography/tandem mass spectrometry was performed by Syneos Health (Princeton, NJ) using a Sciex 6500 triple quadrupole instrument. Briefly, urine samples were treated with UV irradiation to photocleave the ANP linker and liberate the Glu-Fib reporter from residual peptide fragments. Samples were extracted by solid-phase extraction and analyzed by multiple reaction monitoring by LC-MS/MS to quantify concentration of each Glu-Fib mass variant. Analyte quantities were normalized to a spiked-in internal standard and concentrations were calculated from a standard curve using peak area ratio (PAR) to the internal standard. Mean normalization was performed on PAR values to account for mouse-to-mouse differences in ABN inhalation efficiency and urine concentration.
Principal component analysis (PCA) was performed on mean normalized PAR values in the R statistical environment (Team, R.C. R, R Foundation for Statistical Computing, Vienna, Austria, 2017) using the prcomp function. Binary classification was performed using the Caret package (Kuhn, M. caret: Classification and Regression Training. (2017)) in the R statistical environment). […]

[9] = system: Eml4-Alk (EA) lung adenocarcinoma model; test: urinary ABN readout and classification in Eml4-Alk model; assay type: in vivo; details: EA mice
Text: To assess the generalizability of ABNs to other genetic subtypes by leveraging the Eml4-Alk (EA) model Maddalo et al., Nature 516, 423-428 (2014), an autochthonous model in which intrapulmonary administration of adenovirus encoding two short guide RNAs (sgRNAs) and Cas9 results in translocation and fusion of the Eml4 and Alk genes, yielding lung adenocarcinoma that histologically resembles human disease.
Tumors were initiated in male C57BL/6 mice between 6 and 10 weeks old as described previously (50), by intratracheal administration of 50 μL adenovirus expressing the Ad-EA vector (Viraquest) (1.5×10^8 PFU in Opti-MEM with 10 mM CaCl2)).
It was determined whether the lung nanosensors could be prospectively applied to diagnose disease. […] The classifier was also evaluated on a test cohort that combined both LUAD models and again found strong classification at 7.5 weeks and 10.5 weeks (AUC7.5 wk s=0.97; AUC10.5 wk s=0.93) (FIG. 17C).
For all urine experiments, PAR values were normalized to ABN stock concentrations and then mean normalized across all reporters in a given urine sample prior to further statistical analysis. […] Ten independent train-test trials were run for each classification problem, and classification performance was evaluated with receiver operating characteristic (ROC) statistics calculated in MATLAB. […]

[10] = system: 15 proteases in the LUAD protease panel; test: in vitro recombinant protease screen of FRET-paired substrates; assay type: biochemical; details: fluorescence fold change at 45 minutes; 1 μM substrate, 12.5 nM recombinant enzyme; MP metallo-, SP serine, AP aspartic protease
Text: Hundreds of peptide sequences have been previously designed and validated as protease substrates, leveraging known catalytic specificities of different protease families, published datasets and substrate sequences in databases like cutDB and MEROPS (Igarashi et al., Nucleic Acids Res 35, D546-549, 2007; Rawlings et al., Nucleic Acids Res 46, D624-D632, 2018). Fourteen of these substrates were nominated in an effort to cover the specificity profiles of metallo-, serine and aspartic endoproteases, all of which were included in the LUAD protease panel, and the catalytic activity of each protease-substrate pair was characterized. Quenched probes that incorporated the 14 peptide substrates were synthesized such that they fluoresce upon proteolytic cleavage to enable real-time monitoring of protease activity in vitro (FIG. 3A and Table 2). Each probe was incubated with each protease in the panel and fluorescence was monitored over 45 minutes. Shown are sample kinetic plots monitoring dequenching of the 14 FRET-paired probes when incubated with (above) and without (below) recombinant matrix metalloproteinase 3 (MMP3) (FIG. 3B). […] See also FIG. 19.
Fluorogenic protease substrates were synthesized by CPC Scientific. Recombinant proteases were purchased from Enzo Life Sciences, R&D Systems and Haematologic Technologies. For recombinant protease assays, fluorogenic substrates PPQ1-14 (1 μM final concentration) were incubated in 30 μL final volume in appropriate enzyme buffer, according to manufacturer specifications, with 12.5 nM recombinant enzyme at 37° C. (FIG. 3). Proteolytic cleavage of substrates was quantified by increases in fluorescence over time by fluorimeter (Tecan Infinite M200 Pro). Enzyme cleavage rates were quantified as relative fluorescence increase over time normalized to fluorescence before addition of protease. Hierarchical clustering was performed in GENE-E, using fluorescence fold changes at 45 minutes.

Substance | cleavage by supernatant (fluorescence signal) ([1]; PA01 culture supernatant, fluorescence change at 30 minutes) | cleavage potency by Michaelis-Menten type analysis ([1]; range of substrate concentrations, compared with LAS substrate) | cleavage by recombinant protease [2] | cleavage by recombinant protease [3] | cleavage by recombinant protease [4] | cleavage by recombinant protease [5] | extent of cleavage compared with LAS-Q ([6]; bacterial-derived proteases) | strains whose supernatant gave significant cleavage ([6]; five clinical isolate strains) | cleavage by supernatant (fluorescence signal) [7] | urinary reporter enrichment [8] | urinary reporter enrichment [9] | protease class(es) cleaving the substrate in vitro [10]
ELA-Q: FRET-paired (FAM fluorophore, Dabcyl quencher) substrate for elastases including neutrophil elastase; includes SEQ ID NO: 47 (GAAFAGK(FAM); also: Dabcyl quencher, site not given here) | Significant increases | more potently cleaved | resist cleavage | cleaved | resist cleavage | resist cleavage | more extensively cleaved | 3 of the 5 strains | Significant increases | – | – | –
PP01: ABN: reporter e(+2G)(+6V)ndneeGFFsAr, ANP, substrate PQGIWGQ, nanocarrier PEG8-40 kDa (chain 1 [dE]G[+6V][dN][dD][dN][dE][dE]GFF[dS]A[dR]; not fully specified (some residues); printed as PP01: ABN: reporter e(+2G)(+6V)ndneeGFFsAr, ANP, substrate PQGIWGQ, nanocarrier PEG8-40 kDa; also: ANP photolabile linker, PEG8-40 kDa nanocarrier, linkage of reporter, ANP, substrate and carrier not given here) | – | – | – | – | – | – | – | – | – | not in KP mice | consistent enrichment | metalloprotease-specific
